{
  "source": "patent US5231182A",
  "about": "“Method of making certain aryl containing amides” (American Cyanamid Company, priority 1991, dated 1993)",
  "key": {"PAF induced lethality": {"tested_on": "PAF induced lethality", "test": "PAF induced lethality in mice", "assay_type": "in vivo", "conditions": "PAF 150 μg/kg IV", "method": "PAF given I.V. to mice causes an immediate hypotensive shock leading to death in 1 hour or less. Compounds are given intraperitoneally or P.O. at various times before the PAF challenge. Animals alive after 2 hours are counted and the activity of test compounds expressed as % survival corrected for any control (saline treated) animals which survived the PAF challenge.\nEffect of Compound Given I.V. or P.O. in Protecting\nMice from a Lethal Challenge of PAF^a\n^a lethal challenge of PAF is 150 μg/kg IV."}, "[1]": {"tested_on": "Endotoxin induced shock and mortality", "test": "Endotoxin induced shock and mortality in mice: high dose acute mouse endotoxemia", "assay_type": "in vivo, Male Balb/c mice", "conditions": "administered ip prior to a lethal ip injection of endotoxin", "text": "(§1) Endotoxin administration produces a shock-like state characterized by vascular permeability changes, hypotension, neutropenia, thrombocytopenia,multiple organ damage and death. The major mediators released after endotoxin injection are TNF (tumor necrosis factor), PAF (platelet activating factor) and […] (interleukin I). PAF administration mimics the signs and symptoms of endotoxin induced shock and death and endotoxin also induces the release of PAF. Therefore, the effects of endotoxin should be blocked with a PAF antagonist.\n(§2) Male Balb/c mice (approximately 20 g) are obtained from Charles River Laboratories and used after a one-two week acclimation period. Animals are given (ip) test compound dissolved in saline or water (sonicated and heated) at different time intervals prior to and after the ip injection of endotoxin (usually 2 hours before LPS endotoxin, and 3-4 hours after). Sigma E. Coli endotoxin, 0111:B4, phenol extraction, catalog #L2630 is used for these studies.\nThis LD value is approximately 50 mg/kg i.p. The number of survivors in each group (control or treated with test compound) is recorded after 24, 48 or 72 hours and the treated groups (receiving test compound and endotoxin) are compared with the untreated, control group (receiving endotoxin only) or saline control (receiving saline and endotoxin).\nEffect of Compounds Given I.P. in High Dose Acute Mouse Endotoxemia […]"}, "[2]": {"tested_on": "Endotoxin induced shock and mortality", "test": "Endotoxin induced shock and mortality in mice: low dose, chronic mouse endotoxemia", "assay_type": "in vivo, Male Balb/c mice", "conditions": "dose 10 mg/kg i.p.", "text": "as §1, §2\nFor the chronic endotoxin shock model, a lower dose of endotoxin is administered (generally 15 to 20 mg/kg i.p). This dose gives an LD80 in two to four days following LPS administration. Test compounds are given 2 hours before LPS and 3-4 hours after on the first day, followed by 3 or 4 consecutive days of BID dosing. The number of survivors in each group is recorded each day for a period of 5 to 7 days.\nEffect of Compounds Given i.p. in Low Dose, Chronic Mouse Endoxemia"}, "PAF receptor": {"target": "T1, PAF receptor (Oryctolagus cuniculus, UniProt G1TEI7)", "T1 construct": "centrifuged at 800 rpm for 10-15 minutes at room temperature to recover the platelet rich plasma (PRP); endogenous in cells; host or cells: platelets in citrated platelet rich plasma from male New Zealand White rabbits (Oryctolagus cuniculus)", "T1 sequence (G1TEI7 1-342)": "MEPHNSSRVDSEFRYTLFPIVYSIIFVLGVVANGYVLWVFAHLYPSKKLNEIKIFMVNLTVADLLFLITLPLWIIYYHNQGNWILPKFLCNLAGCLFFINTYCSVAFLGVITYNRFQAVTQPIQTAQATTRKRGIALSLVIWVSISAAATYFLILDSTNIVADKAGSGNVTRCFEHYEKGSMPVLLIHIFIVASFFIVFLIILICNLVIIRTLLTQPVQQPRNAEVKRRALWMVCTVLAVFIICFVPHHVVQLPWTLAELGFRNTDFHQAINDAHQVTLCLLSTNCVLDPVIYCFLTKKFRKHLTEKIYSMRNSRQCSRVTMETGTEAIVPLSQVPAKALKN", "test": "Platelet Activating Factor antagonism in vitro: inhibition of PAF induced platelet aggregation in rabbit platelet rich plasma", "assay_type": "cell-based, rabbit (New Zealand White)", "method": "Test compounds are evaluated as PAF receptor antagonists in vitro by measuring inhibition of PAF (platelet activating factor) induced platelet aggregation. Platelet aggregation is measured by a modification of the method described in […], et. al., J. Med. Chem., 27 1174, 1984. […] All syringes and pipets are plastic. The blood is gently mixed and immediately centrifuged at 800 rpm for 10-15 minutes at room temperature to recover the platelet rich plasma (PRP). Platelet poor plasma (PPP) is prepared by centrifuging PRP at 2800 rpm for 10 minutes at room temperature. Dilutions (1:3000) of PRP in Isoton® diluent are made and platelet counts are determined on a Coulter Thrombocounter which is standardized with platelet reference standards (Interscience Platelet Control, Portland, Oreg.). PRP platelet counts are adjusted to approximately 400,000-500,000 platelets/μl by the addition of PPP. L-PAF (Platelet Activating Factor) is obtained from Calbiochem. […] All solutions are made up in plastic tubes, stored on ice and protected from heat and light. Solutions are prepared fresh or frozen at -20° C. and used within 48 hours. Incubation mixtures consisted of 400 μl PRP, 50 μl of saline diluent or test compound and 50 μl of PAF agonist. More specifically, 400 μl of PRP is stabilized in a cuvette for 1-2 minutes at 37° C. in the aggregometer to achieve a stable baseline, then 50 μl of saline or test compound is added and incubated for 5 minutes before addition of the challenge concentration of PAF. A submaximal concentration is determined from the dose response curve for PAF for that experiment. In general, the challenge concentration is 5E-8 or IE-7M. Aggregation is monitored for 5 minutes. Samples containing test compound or diluent are run simultaneously for comparison. Test compounds are initially evaluated at a screening concentration of 1E-5M. […] The recording equipment consists of a dual channel Chronolog aggregometer connected to a dual channel 10MV full scale deflection Omniscribe chart recorder (Houston Instruments). The chart recorder is calibrated daily with the use of a suspension of Bio-Rad latex beads (S-X 12 400 mesh) which has a density slightly greater than rabbit PRP. […] These limits defined a full scale deflection. The aggregation traces are analyzed by a digitizing method (C. Kohler and B. Zoltan, J. Pharm. Methods, 12, 113, 1984) with x, y coordinate data stored in a computer file. A suitable program computes parameters of interest such as the magnitude of aggregation. | ^a dose of compound that gives the indicated % inhibition. | ^b the % inhibition of PAF induced platelet aggregation. | ^c the molar concentration of compound that will inhibit 50% of the | platelet aggretation induced by PAF given at the indicated PAF challenge | concentration."}},
  "data": [
    {"smiles": "CCCCCCCCCCCCCCOc1cccc(CC(=O)Nc2cccc(C[n+]3csc(C)c3)c2)c1.[Br-]", "note": "[5-Methyl-3-[[3-[[[3-(tetradecyloxy)phenyl]acetyl]amino]phenyl]methyl]thiazolium bromide]", "values": [
      {"measurement": "% Survival", "setting": "PAF induced lethality; P.O. 5 mg/kg", "value": 40, "unit": "%"},
      {"measurement": "% Survival", "setting": "PAF induced lethality; P.O. 20 mg/kg", "value": 59, "unit": "%"},
      {"measurement": "activity against lethal ip injection of endotoxin", "setting": "[1]", "value": "did show some activity"},
      {"measurement": "% Survival", "setting": "[2]; day 0", "value": 100, "unit": "%"},
      {"measurement": "No Surv./tot.", "setting": "[2]; day 0", "value": "30/30"},
      {"measurement": "% Survival", "setting": "[2]; day 1", "value": 100, "unit": "%"},
      {"measurement": "No Surv./tot.", "setting": "[2]; day 1", "value": "30/30"},
      {"measurement": "% Survival", "setting": "[2]; day 2", "value": 63, "unit": "%"},
      {"measurement": "No Surv./tot.", "setting": "[2]; day 2", "value": "19/30"},
      {"measurement": "% Survival", "setting": "[2]; day 3", "value": 46, "unit": "%"},
      {"measurement": "No Surv./tot.", "setting": "[2]; day 3", "value": "14/30"},
      {"measurement": "% Survival", "setting": "[2]; day 4", "value": 43, "unit": "%"},
      {"measurement": "No Surv./tot.", "setting": "[2]; day 4", "value": "13/30"},
      {"measurement": "% Survival", "setting": "[2]; day 5", "value": 43, "unit": "%"},
      {"measurement": "No Surv./tot.", "setting": "[2]; day 5", "value": "12/30"},
      {"measurement": "No Surv./tot.", "setting": "[2]; day 6", "value": "12/30"},
      {"measurement": "% Survival", "setting": "[2]; day 7", "value": 43, "unit": "%"},
      {"measurement": "No Surv./tot.", "setting": "[2]; day 7", "value": "12/30"},
      {"measurement": "% INH (inhibition of PAF induced platelet aggregation)", "setting": "PAF receptor; dose .00001 M, PAF chall conc 5E-9 M", "value": 100.0, "unit": "%"},
      {"measurement": "PAF antagonism (in words)", "setting": "PAF receptor; in vitro platelet aggregation studies", "value": "known to be a PAF antagonist"}
    ]}
  ]
}
